This passage reports remaining binding results from patent publication US11208412B2 (DAEGU-GYEONGBUK MEDICAL INNOVATION FOUNDATION, priority 2017, dated 2021).

Each structure is given as a SMILES string.

What all share (assay): Kinase selectivity, DiscoverX scanMAX Kinase assay panel (% control)
Assay type in all cases: binding

In assay [1] the target is T1, kinases of the scanMAX Kinase assay panel (Homo sapiens, UniProt O95819).
T1 construct: purchased DiscoverX Co. (contract measurement) scanMAX Kinase assay panel
The note with it: MAP4K4; 1 uM. The essentials:
(§1)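 Compounds were tested at 1 uM (in DMSO) against each panel kinase. % control was calculated as (compound − positive control)/(negative control − positive control)×100, where the positive control gives 0% and DMSO gives 100%. Activity toward a kinase was called at % control <35%.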

In assay [2] the target is T2, kinases of the scanMAX Kinase assay panel (Homo sapiens, UniProt Q04771).
T2 construct: purchased DiscoverX Co. (contract measurement) scanMAX Kinase assay panel
T2 sequence (Q04771 21-509): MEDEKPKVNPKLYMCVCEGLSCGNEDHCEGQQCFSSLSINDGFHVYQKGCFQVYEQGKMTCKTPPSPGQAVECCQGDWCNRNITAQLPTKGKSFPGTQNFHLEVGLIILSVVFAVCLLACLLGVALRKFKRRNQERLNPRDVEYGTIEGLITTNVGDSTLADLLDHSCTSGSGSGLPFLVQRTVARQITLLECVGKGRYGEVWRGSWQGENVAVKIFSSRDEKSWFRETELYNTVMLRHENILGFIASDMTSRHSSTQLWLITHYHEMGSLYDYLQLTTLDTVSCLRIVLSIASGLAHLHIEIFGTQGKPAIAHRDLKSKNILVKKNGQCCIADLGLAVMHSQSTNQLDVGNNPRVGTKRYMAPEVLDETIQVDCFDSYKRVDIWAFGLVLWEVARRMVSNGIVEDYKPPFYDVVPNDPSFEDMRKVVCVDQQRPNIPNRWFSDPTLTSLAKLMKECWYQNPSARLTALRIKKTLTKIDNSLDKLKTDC
The note with it: ACVR1; 1 uM. The essentials: as §1

The target of assay [3] is T3, kinases of the scanMAX Kinase assay panel (Homo sapiens, UniProt Q08345).
T3 construct: purchased DiscoverX Co. (contract measurement) scanMAX Kinase assay panel
The note with it: DDR1; 1 uM. The essentials: as §1

In assay [4] the target is T4, kinases of the scanMAX Kinase assay panel (Homo sapiens, UniProt Q13153).
T4 construct: purchased DiscoverX Co. (contract measurement) scanMAX Kinase assay panel
The note with it: PAK1; 1 uM. In a few lines:
as §1

The target of assay [5] is T5, kinases of the scanMAX Kinase assay panel (Homo sapiens, UniProt Q16539).
T5 construct: purchased DiscoverX Co. (contract measurement) scanMAX Kinase assay panel
The note with it: p38-alpha; 1 uM. In a few lines: as §1

Assay [6] addresses T6, kinases of the scanMAX Kinase assay panel (Homo sapiens, UniProt Q9NRH2).
T6 construct: purchased DiscoverX Co. (contract measurement) scanMAX Kinase assay panel
T6 sequence (Q9NRH2 1-765): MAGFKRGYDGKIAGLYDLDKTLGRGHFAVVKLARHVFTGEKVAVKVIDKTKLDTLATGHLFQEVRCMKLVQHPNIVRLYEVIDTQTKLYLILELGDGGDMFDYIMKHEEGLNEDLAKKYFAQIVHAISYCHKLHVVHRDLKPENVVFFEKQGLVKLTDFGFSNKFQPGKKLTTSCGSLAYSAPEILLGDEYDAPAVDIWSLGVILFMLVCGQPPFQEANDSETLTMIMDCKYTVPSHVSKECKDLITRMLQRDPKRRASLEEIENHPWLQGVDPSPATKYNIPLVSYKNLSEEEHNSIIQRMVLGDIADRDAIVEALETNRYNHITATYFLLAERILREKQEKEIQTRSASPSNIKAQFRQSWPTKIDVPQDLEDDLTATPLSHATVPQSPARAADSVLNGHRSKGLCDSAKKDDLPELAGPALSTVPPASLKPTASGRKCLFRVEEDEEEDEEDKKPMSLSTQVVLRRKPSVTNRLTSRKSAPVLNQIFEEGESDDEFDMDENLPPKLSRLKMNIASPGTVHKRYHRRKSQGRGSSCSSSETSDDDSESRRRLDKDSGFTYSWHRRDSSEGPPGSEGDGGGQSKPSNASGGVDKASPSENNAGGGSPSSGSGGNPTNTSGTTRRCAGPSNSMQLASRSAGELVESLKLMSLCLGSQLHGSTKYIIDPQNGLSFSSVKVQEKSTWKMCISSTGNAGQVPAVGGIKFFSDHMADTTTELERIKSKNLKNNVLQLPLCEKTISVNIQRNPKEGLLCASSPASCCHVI
The note with it: kinase SNRK; 1 uM in DMSO. The essentials:
as §1

Assay [7] has as its target T7, kinases of the scanMAX Kinase assay panel (Homo sapiens, UniProt Q9NSY1).
T7 construct: purchased DiscoverX Co. (contract measurement) scanMAX Kinase assay panel
The note with it: BIKE; 1 uM. The essentials:
as §1

The target of assay [8] is T8, kinases of the scanMAX Kinase assay panel (Homo sapiens, UniProt Q9UKI8).
T8 construct: purchased DiscoverX Co. (contract measurement) scanMAX Kinase assay panel
T8 sequence (Q9UKI8 1-766): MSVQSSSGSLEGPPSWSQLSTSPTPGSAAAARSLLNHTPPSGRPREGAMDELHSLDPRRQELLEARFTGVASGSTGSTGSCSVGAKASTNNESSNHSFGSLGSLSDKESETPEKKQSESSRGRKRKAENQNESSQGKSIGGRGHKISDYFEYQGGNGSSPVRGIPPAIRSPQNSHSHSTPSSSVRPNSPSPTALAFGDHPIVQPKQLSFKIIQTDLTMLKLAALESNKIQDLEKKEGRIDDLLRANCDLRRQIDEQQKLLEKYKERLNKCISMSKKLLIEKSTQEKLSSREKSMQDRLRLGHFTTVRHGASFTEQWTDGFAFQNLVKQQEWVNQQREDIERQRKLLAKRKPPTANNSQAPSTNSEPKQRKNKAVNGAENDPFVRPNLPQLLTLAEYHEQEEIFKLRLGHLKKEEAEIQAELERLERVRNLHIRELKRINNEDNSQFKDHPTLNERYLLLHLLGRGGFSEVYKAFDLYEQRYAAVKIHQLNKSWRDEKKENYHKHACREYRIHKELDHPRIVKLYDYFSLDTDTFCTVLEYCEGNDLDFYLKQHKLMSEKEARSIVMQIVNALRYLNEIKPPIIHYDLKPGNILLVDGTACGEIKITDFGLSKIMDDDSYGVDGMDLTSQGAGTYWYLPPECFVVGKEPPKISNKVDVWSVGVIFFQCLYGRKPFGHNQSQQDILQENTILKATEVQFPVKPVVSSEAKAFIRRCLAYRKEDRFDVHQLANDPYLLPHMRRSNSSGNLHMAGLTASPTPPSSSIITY
The note with it: kinase TLK1; 1 uM in DMSO. In a few lines: as §1

The target in assay [9] is T9, kinases of the scanMAX Kinase assay panel (Homo sapiens, UniProt Q9Y6M4).
T9 construct: purchased DiscoverX Co. (contract measurement) scanMAX Kinase assay panel
The note with it: CSNK1G3; 1 uM. The essentials: as §1

T3 sequence (Q08345 19-913): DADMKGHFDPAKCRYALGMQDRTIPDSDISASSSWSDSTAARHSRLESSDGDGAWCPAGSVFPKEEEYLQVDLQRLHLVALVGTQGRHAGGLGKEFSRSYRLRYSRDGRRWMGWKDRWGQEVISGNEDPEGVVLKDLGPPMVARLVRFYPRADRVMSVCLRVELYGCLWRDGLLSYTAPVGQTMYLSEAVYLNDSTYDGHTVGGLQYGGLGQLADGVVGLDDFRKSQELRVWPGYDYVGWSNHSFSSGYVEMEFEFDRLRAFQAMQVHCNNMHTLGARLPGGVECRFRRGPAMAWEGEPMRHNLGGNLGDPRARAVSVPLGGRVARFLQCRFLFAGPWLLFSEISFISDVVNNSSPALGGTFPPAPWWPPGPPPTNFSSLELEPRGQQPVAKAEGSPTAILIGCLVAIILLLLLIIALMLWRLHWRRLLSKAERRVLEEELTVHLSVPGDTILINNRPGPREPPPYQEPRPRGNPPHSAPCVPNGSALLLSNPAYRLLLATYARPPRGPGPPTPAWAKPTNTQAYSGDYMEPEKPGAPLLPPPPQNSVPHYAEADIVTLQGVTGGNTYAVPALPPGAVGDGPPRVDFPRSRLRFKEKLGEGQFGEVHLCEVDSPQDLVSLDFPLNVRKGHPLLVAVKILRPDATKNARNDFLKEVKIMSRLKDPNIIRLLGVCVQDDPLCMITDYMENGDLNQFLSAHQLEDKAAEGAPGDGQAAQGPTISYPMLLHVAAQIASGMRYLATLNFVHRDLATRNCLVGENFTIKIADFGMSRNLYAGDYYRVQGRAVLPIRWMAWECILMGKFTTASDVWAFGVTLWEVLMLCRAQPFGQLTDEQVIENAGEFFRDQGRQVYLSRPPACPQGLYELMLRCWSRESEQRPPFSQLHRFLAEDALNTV
T4 sequence (Q13153 whole entry): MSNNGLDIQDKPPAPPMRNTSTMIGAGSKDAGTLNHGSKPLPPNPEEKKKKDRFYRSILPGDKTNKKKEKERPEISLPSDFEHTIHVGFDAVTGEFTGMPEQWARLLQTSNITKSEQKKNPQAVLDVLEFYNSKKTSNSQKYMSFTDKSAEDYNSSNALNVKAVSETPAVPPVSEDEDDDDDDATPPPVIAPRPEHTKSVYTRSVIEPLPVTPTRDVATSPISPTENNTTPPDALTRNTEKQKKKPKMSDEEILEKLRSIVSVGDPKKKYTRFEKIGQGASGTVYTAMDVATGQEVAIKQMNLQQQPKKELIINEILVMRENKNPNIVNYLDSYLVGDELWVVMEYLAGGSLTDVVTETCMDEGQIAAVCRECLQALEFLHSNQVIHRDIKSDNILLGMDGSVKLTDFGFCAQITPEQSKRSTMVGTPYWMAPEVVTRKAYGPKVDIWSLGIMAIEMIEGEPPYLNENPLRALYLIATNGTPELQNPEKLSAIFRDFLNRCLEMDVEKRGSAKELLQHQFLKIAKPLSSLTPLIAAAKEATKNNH
T7 sequence (Q9NSY1 whole entry): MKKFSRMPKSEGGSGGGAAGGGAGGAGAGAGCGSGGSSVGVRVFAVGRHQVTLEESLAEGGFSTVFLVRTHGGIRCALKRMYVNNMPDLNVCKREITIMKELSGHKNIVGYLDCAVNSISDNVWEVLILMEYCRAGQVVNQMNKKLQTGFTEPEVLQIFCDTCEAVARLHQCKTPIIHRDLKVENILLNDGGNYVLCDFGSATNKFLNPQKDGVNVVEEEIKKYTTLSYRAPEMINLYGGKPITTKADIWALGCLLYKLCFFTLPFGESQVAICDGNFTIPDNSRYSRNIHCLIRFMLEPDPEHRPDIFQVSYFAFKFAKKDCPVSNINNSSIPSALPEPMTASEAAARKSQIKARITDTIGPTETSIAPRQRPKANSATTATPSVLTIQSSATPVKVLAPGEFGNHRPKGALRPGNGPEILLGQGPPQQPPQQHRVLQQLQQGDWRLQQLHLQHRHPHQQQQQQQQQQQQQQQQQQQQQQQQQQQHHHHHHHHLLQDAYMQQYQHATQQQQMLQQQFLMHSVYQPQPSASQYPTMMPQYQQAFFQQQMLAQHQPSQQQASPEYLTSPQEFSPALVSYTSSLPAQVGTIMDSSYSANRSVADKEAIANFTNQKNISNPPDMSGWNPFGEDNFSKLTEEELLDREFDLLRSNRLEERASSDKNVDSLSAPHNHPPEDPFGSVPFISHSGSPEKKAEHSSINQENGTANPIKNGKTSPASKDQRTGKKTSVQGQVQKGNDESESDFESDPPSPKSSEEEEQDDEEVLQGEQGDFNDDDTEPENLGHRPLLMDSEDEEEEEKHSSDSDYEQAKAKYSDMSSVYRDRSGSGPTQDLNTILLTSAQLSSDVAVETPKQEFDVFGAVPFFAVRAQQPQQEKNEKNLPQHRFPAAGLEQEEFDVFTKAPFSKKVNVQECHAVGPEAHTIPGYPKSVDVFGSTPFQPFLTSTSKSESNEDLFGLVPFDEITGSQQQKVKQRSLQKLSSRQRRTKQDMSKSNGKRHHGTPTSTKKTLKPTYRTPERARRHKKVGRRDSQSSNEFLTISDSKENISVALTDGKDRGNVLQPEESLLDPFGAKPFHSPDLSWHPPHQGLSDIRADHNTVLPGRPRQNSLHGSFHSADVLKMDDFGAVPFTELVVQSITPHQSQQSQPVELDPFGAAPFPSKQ
T9 sequence (Q9Y6M4 whole entry): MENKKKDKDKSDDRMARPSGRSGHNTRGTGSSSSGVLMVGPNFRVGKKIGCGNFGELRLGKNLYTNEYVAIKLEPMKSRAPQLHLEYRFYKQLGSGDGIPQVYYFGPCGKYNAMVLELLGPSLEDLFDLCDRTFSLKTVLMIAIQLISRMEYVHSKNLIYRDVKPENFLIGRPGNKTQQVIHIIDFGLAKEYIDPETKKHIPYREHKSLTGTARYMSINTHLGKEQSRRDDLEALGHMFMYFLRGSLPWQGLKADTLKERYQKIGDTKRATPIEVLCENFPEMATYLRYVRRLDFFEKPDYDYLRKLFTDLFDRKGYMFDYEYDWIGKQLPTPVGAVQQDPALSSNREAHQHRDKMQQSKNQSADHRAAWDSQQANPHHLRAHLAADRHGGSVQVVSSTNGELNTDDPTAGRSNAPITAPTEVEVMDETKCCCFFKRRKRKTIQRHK
T1 sequence (O95819 whole entry): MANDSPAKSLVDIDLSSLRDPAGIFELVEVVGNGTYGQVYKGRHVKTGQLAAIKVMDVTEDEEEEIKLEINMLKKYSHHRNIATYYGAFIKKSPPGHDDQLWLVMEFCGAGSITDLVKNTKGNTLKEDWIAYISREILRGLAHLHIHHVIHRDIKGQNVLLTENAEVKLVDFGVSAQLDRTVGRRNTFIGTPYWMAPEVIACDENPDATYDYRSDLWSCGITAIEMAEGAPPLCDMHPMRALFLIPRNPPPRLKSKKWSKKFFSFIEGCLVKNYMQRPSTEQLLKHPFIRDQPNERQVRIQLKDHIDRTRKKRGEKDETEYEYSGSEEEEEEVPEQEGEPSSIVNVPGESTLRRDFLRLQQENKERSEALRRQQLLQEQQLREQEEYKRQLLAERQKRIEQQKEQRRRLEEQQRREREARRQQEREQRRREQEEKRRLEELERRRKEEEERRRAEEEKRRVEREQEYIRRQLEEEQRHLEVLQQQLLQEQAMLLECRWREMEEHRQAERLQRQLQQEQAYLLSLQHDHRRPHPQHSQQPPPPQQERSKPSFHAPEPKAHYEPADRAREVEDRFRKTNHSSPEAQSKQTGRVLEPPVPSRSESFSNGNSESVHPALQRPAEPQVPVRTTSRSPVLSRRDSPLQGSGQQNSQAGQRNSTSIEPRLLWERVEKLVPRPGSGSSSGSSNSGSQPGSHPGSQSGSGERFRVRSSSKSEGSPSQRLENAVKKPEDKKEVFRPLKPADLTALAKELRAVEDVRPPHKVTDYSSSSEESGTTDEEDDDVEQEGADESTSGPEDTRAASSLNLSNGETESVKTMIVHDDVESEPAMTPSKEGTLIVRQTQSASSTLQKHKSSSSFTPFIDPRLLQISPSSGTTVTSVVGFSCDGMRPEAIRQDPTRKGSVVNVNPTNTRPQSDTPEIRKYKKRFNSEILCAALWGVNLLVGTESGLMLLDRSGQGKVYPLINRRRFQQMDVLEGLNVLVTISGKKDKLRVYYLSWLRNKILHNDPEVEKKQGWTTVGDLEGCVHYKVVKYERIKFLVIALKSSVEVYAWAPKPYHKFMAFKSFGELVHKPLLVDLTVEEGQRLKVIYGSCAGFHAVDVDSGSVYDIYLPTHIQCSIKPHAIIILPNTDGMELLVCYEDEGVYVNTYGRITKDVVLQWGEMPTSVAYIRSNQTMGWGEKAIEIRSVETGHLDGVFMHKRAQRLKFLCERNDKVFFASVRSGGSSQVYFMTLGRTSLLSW
T5 sequence (Q16539 whole entry): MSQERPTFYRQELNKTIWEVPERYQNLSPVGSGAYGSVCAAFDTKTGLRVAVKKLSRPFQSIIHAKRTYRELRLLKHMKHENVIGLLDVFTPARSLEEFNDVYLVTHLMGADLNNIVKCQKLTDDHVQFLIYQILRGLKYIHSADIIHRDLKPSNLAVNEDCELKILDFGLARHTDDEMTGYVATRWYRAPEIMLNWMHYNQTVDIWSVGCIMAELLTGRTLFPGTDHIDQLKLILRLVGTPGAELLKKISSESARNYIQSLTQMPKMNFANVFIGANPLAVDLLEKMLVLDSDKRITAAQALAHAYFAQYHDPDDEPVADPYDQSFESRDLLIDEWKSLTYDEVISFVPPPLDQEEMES

Regarding `CNc1nc(Nc2ccc(C(=O)N3CCOCC3)cc2OC)nc2[nH]cc(C#N)c12` [Example 1, 2-((2-methoxy-4-(morpholine-4-carbonyl)phenyl)amino)-4-(methylamino)-7H-pyrrolo[2,3-d]pyrimidine-5-carbonitrile], the remaining binding at 1 µM amounted to 82% in assay [1]; 97% in assay [2]; 94% in assay [3]; 100% in [4]; 94% in assay [5]; 64% in [6]. For the same molecule, the remaining binding at 1 µM in assay [7] is 62%; in assay [8] it was 95%; in assay [9] it was 58%.

`CC1(Nc2nc(Nc3cnn([C@H]4CCN(C5COC5)C[C@@H]4F)c3Cl)nc3[nH]cc(C#N)c23)CC1` [Example 52, 2-((5-chloro-1-((3S,4S)-3-fluoro-1-(oxetane-3-yl)piperidine-4-yl)-1H-pyrazole-4-yl)amino)((1-methylcyclopropyl)amino)-7H-pyrrolo[2,3-d]pyrimidine-5-carbonitrile]: the remaining binding at 1 µM stood at 18% in [1]; 73% in [2]; 50% in assay [3]; 75% in [4]; 91% in [5]; 7.6% in assay [6]. Further, the remaining binding at 1 µM in assay [7] worked out at 0%; in assay [8], 78%; in assay [9], 0.15%.

As to `CCNc1nc(Nc2ccc(C(=O)N3CCC(N4CCOCC4)CC3)cc2OC)nc2[nH]cc(C(F)(F)F)c12` [Example 104, (4-((4-(ethylamino)-5-(trifluoromethyl)-7H-pyrrolo[2,3-d]pyrimidine-2-yl)amino)-3-methoxyphenyl)(4-morpholinopiperidine-1-yl)methanone], the remaining binding at 1 µM in assay [1] was determined as 100%; in [2], 100%; in assay [3], 100%; in assay [4], 71%; in [5], 96%; in assay [6], 69%. The remaining binding at 1 µM is 100% in assay [7], 72% in [8] and 90% in assay [9].
